Results as given in patent US12606552B2, “Bifunctional compound, preparation method therefor, and use thereof” (SUZHOU KINTOR PHARMACEUTICALS, INC., priority 2020, dated 2026).

Tests used:
[1] = tested on: flank sebaceous glands of golden hamster; experiment: In vivo efficacy on acne in female golden hamsters (growth of sebaceous plaques induced by testosterone propionate); conditions: skin smear once a day, 21 days
Description: Activity Assay Example 7: In Vivo Efficacy of Compounds on Acne in Female Golden Hamsters
1. Test object: The flank sebaceous glands of golden hamster are androgen-dependent organs, and testosterone propionate (male hormone) promotes the enlargement of sebaceous glands. This experiment is mainly to study the inhibitory effect of CB-03-01 (positive drug), Flutamide (positive drug) and the compound on sebaceous gland enlargement in female golden hamster acne model (androgen dependence), to further observe the in vivo drug efficacy of the compound, to provide the basis for clinical trials of androgen-induced acne symptoms.
Androgen (Testosterone Propionate-TP); CB-03-01 (Clascoterone, CAS No. 19608-29-8); □ Flutamide (Flutamide, CAS No. 13311-84-7); compound A46 of the present invention.
2.2 Experimental Animals, See Table 4 for Details
2.3 Administration Vehicle: Acetone. 3. Experimental Design
In this experiment, from 72 female golden hamsters, according to the size and body weight of sebaceous glands, golden hamsters were evenly distributed to each group, 6 mice per group, a total of 7 groups, and they were administered continuously for 21 days.
According to the protocol in the table, […] of drug was administered each time, it was evenly smeared on the sebaceous glands, and administered once a day.
Animal grouping and status observation: Before grouping, the body weight was weighed, and the sebaceous glands on both sides were shaved for the observation of the size of sebaceous glands. Animals were observed twice a day in the morning and afternoon during the administration period. On the 21st day after administration, the size of sebaceous glands and the body weight of animals were observed and recorded.
The size of the sebaceous glands is expressed by the area, and the vernier caliper recorded its long side (a) and short side (b), and the area of the sebaceous glands (S) is obtained from the formula for calculating the area of a rectangle. In model group and administration group, ΔS=S−S(vehicle). Growth inhibition rate (%)=(ΔS(acetone testosterone group)−ΔS (administration group))/ΔS(acetone testosterone group)*100%.

[2] = tested on: androgenetic alopecia model in C57BL/6J mice; experiment: Hair regeneration effects on androgenic alopecia C57 mouse model (DHT-induced); format: in vivo, C57BL/6N mice; conditions: AVER n = 6, score 0-5
Description: Activity Assay Example 8: Hair Regeneration Effects of Compounds on Androgenic Alopecia C57 Mouse Model
The purpose of this study was to compare the effect of the compounds prepared by the present invention as AR protein degraders on hair regrowth in an androgenetic alopecia model in C57BL/6J mice by transdermal application route of administration, and to provide data to support subsequent clinical trials.
2. Experimental Principle
Name of test compound I: dihydrotestosterone DHT; name of test compound II: compound A46 of the present invention; name of test compound III: minoxidil.
4. Experimental animals: strain: C57BL/6N mice; age: 6-7 weeks; gender: male; number of animals: 70 (10 for later use); rearing environment: specific pathogen-free (SPF).
70 mice were deeply anesthetized, and the hair on the back of the mice was removed with an animal shaver, then the depilatory cream (Veet https://item.jd.com/6291245.html) was smeared evenly on the surface of the mice skin, and left 7-10 minutes. Then the hair was gently scraped off with a hair removal scraper against the direction of the hair, and finally the residual hair removal cream on the skin surface was fully washed with water to avoid burning the mice skin.
This experiment was divided into 6 groups, and the DHT administration started on the day of hair removal, A46 is administered on day 2 after hair removal and is counted as day 1 (the day of hair removal is counted as day 0).
5.3 Test Compound Preparation Method
5.4 Observation and Measurement Indicators • 1) Body weight/g: From the first day of administration, body weight was weighed and recorded twice a week. • 2) Hair regeneration (anagen) score (0 points: no darkening of skin color in all areas; 1 point: darkening of gray skin color areas; 2 points: visible short hair; 3 points: thin hair; 4 points: thick hair; 5 points: full hair growth).
All mice were photographed on day 1 after hair removal, and then photographed and scored daily from day 4 until the end of the experiment. • 3) At the end of the experiment, skin and blood collection operations were performed as needed. 5.5 Criteria for Drug Withdrawal and Experiment Termination
Data are presented as average±standard error (AVE±SEM). One-way multi-level analysis of variance was used for statistics. The comparison between each drug group and the model group was performed by Stundent's t-test or rank sum test, and the p value was calculated. p<0.05 means there is a significant difference between the two groups, p<0.01 means there is a extremely significant difference between the two groups.

Cc1ncsc1-c1ccc(CNC(=O)[C@@H]2C[C@@H](O)CN2C(=O)[C@@H](NC(=O)COCCCCOc2ccc(-c3ccc(N4C(=S)N(c5ccc(C#N)c(C(F)(F)F)c5F)C(=O)C4(C)C)cn3)cc2)C(C)(C)C)cc1 [Compound A46]
The inhibition rate of the growth of sebaceous plaques (%) ([1]; 100 μg (0.4%) + testosterone propionate 12 μg): 19.24% | The inhibition rate of the growth of sebaceous plaques (%) ([1]; 200 μg (0.8%) + testosterone propionate 12 μg): 35.20% | The inhibition rate of the growth of sebaceous plaques (%) ([1]; 400 μg (1.6%) + testosterone propionate 12 μg): 49.54% | The inhibition rate of the growth of sebaceous plaques (%) ([1]; 800 μg (3.2%) + testosterone propionate 12 μg): 51.61% | Hair regeneration score ([2]; 0.5% skin smear BID + DHT 30 mpk, 0 day): 0.00 | Hair regeneration score ([2]; 0.5% skin smear BID + DHT 30 mpk, 3 days): 0.00 | Hair regeneration score ([2]; 0.5% skin smear BID + DHT 30 mpk, 5 days): 0.00 | Hair regeneration score ([2]; 0.5% skin smear BID + DHT 30 mpk, 7 days): 0.00 | Hair regeneration score ([2]; 0.5% skin smear BID + DHT 30 mpk, 10 days): 0.33 | Hair regeneration score ([2]; 0.5% skin smear BID + DHT 30 mpk, 12 days): 0.50 | Hair regeneration score ([2]; 0.5% skin smear BID + DHT 30 mpk, 14 days): 1.00 | Hair regeneration score ([2]; 0.5% skin smear BID + DHT 30 mpk, 17 days): 1.67 | Hair regeneration score ([2]; 1% skin smear BID + DHT 30 mpk, 0 day): 0.00 | Hair regeneration score ([2]; 1% skin smear BID + DHT 30 mpk, 3 days): 0.00 | Hair regeneration score ([2]; 1% skin smear BID + DHT 30 mpk, 5 days): 0.00 | Hair regeneration score ([2]; 1% skin smear BID + DHT 30 mpk, 7 days): 0.00 | Hair regeneration score ([2]; 1% skin smear BID + DHT 30 mpk, 10 days): 0.33 | Hair regeneration score ([2]; 1% skin smear BID + DHT 30 mpk, 12 days): 0.83 | Hair regeneration score ([2]; 1% skin smear BID + DHT 30 mpk, 14 days): 1.50 | Hair regeneration score ([2]; 1% skin smear BID + DHT 30 mpk, 17 days): 2.00 | Hair regeneration score ([2]; 3% skin smear BID + DHT 30 mpk, 0 day): 0.00 | Hair regeneration score ([2]; 3% skin smear BID + DHT 30 mpk, 3 days): 0.00 | Hair regeneration score ([2]; 3% skin smear BID + DHT 30 mpk, 5 days): 0.00 | Hair regeneration score ([2]; 3% skin smear BID + DHT 30 mpk, 7 days): 0.00 | Hair regeneration score ([2]; 3% skin smear BID + DHT 30 mpk, 10 days): 0.50 | Hair regeneration score ([2]; 3% skin smear BID + DHT 30 mpk, 12 days): 1.17 | Hair regeneration score ([2]; 3% skin smear BID + DHT 30 mpk, 14 days): 1.83 | Hair regeneration score ([2]; 3% skin smear BID + DHT 30 mpk, 17 days): 2.83
